# In patent US11975095B2, “Callus lysate comprising high content of callus metabolite and preparation method thereof” (BIOSPECTRUM, INC., priority 2020, dated 2024):
# Test: Anti-oxidation: DPPH free radical scavenging
# Details: positive control at 400 μg/ml
# Protocol: The antioxidant activity was evaluated by measuring the ability of scavenging a free radical, DPPH (1,1-diphenyl-2-picrylhydrazyl). DPPH, a radical with a color, was used to directly determine the radical scavenging ability of the sample.
# 50 μl of each sample of Examples 1 to 13 and Comparative Examples 1 to 5 was mixed with 1 ml of a 100 μM DPPH solution. The resultant mixture was subjected to reaction and incubation at 20° C. (room temperature) at 30 minutes. Then, the amount of the remaining DPPH was determined through the absorbance measurement at 517 nm.
# Upon completion of the reaction, the free radical scavenging activity (%) of the sample was calculated according to Equation 3 below. In this regard, the positive control was 400 μg/ml of ascorbic acid, and the blank was purified water. Radical Scavenging Ability (%)={1−(absorbance of sample-added group/absorbance of sample-free group)×100} [Equation 3]
compound,measurement,value
O=C1O[C@H]([C@@H](O)CO)C(O)=C1O [Ascorbic acid],Free radical scavenging ability,80.7%
